Tests used:
[1] = target: T1, human β-Secretase (AA 1-AA 460), sBACE-Fc (Homo sapiens, UniProt P56817); test: Diluted TR-FRET assay; assay type: biochemical; conditions: footnote a: diluted FRET assay, 50 times less enzyme, 6.5 h reaction time at r.t.; read-out: IC50 in TR-FRET assay (IC50 from the diluted FRET assay)
T1 construct: soluble part of the human β-Secretase (AA 1-AA 460) was cloned; Fc domain of IgG1; made in house
Method: The cDNA for the soluble part of the human β-Secretase (AA 1-AA 460) was cloned using the ASP2-Fc10-1-IRES-GFP-neoK mammalian expression vector. The gene was fused to the Fc domain of IgG1 (affinity tag) and stably cloned into HEK 293 cells.
The robotic systems Biomek FX and Velocity 11 were used for all liquid handling and the enzyme and substrate solutions were kept on ice until they were placed in the robotic system. Enzyme (9 μA) was added to the plate then 1 μA of compound in dimethylsulphoxide was added, mixed and pre-incubated for 10 minutes. Substrate (10 μA) was then added, mixed and the reaction proceeded for 15 minutes at r.t. The reaction was stopped with the addition of Stop solution (7 μl, NaAcetate, pH 9). […] The dimethylsulphoxide control, instead of test compound, defined the 100% activity level and 0% activity was defined by wells lacking enzyme (replaced with reaction buffer).

[2] = tested on: sAPPβ release, SH-SY5Y cells; test: sAPPβ release assay; assay type: cell-based; conditions: Homo sapiens, compounds incubated 17 h
Method: SH-SY5Y cells were cultured in DMEM/F-12 with Glutamax, 10% FCS and 1% non-essential amino acids and cryopreserved and stored at −140° C. at a concentration of 7.5−9.5×10^6 cells per vial. Thaw cells and seed at a conc. of around 10000 cells/well in DMEM/F-12 with Glutamax, 10% FCS and 1% non-essential amino acids to a 384-well tissue culture treated plate, […] cell susp/well. The cell plates were then incubated for 7-24 h at 37° C., 5% CO2. The cell medium was removed, followed by addition of 30 μL compound diluted in DMEM/F-12 with Glutamax, 10% FCS, 1% non-essential amino acids and 1% PeSt to a final conc. of 1% DMSO. The compounds were incubated with the cells for 17 h (overnight) at 37° C., 5% CO2. Meso Scale Discovery (MSD) plates were used for the detection of sAPPβ release. MSD sAPPβ plates were blocked in 1% BSA in Tris wash buffer (40 μL/well) for 1 h on shake at r.t. and washed 1 time in Tris wash buffer (40 μL/well). 20 μL of medium was transferred to the pre-blocked and washed is MSD sAPPβ microplates, and the cell plates were further used in an ATP assay to measure cytotoxicity. The MSD plates were incubated with shaking at r.t. for 2 h and the media discarded. 10 μL detection antibody was added (1 nM) per well followed by incubation with shaking at r.t. for 2 h and then discarded. 40 μL Read Buffer was added per well and the plates were read in a SECTOR Imager.

T1 sequence (P56817 22-460): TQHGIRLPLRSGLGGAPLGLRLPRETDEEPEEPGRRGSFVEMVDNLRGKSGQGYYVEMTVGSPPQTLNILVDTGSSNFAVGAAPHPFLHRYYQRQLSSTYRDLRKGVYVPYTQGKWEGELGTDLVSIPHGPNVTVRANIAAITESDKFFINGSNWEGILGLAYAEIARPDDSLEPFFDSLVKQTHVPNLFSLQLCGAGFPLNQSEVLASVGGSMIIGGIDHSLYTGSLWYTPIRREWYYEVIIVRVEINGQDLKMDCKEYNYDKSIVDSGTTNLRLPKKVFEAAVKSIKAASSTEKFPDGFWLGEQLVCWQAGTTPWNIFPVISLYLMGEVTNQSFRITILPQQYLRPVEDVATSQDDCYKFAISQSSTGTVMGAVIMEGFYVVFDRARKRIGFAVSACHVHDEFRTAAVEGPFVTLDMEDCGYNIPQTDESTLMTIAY

Row | SMILES | IC50 [1] | IC50 [2]
1 | CCn1cc(C2(c3cccc(-c4cncnc4)c3)N=C(N)c3c(F)cccc32)cc(C)c1=O (centres unmarked) [Example 6, 5-(3-Amino-4-fluoro-1-(3-(pyrimidin-5-yl)phenyl)-1H-isoindol-1-yl)-1-ethyl-3-methylpyridin-2(1H)-one] | 16 nM | 9 nM
2 | CCn1cc(C2(c3cccc(-c4cncc(C#N)c4)c3)N=C(N)c3c(F)cccc32)cc(C)c1=O (centres unmarked) [Example 8, 5-(3-(3-Amino-1-(1-ethyl-5-methyl-6-oxo-1,6-dihydropyridin-3-yl)-4-fluoro-1H-isoindol-1-yl)phenyl)nicotinonitrile] | 8 nM | 2 nM
3 | CCn1cc(C2(c3cccc(-c4cncc(F)c4)c3)N=C(N)c3c(F)cccc32)cc(C)c1=O (centres unmarked) [Example 9, 5-(3-Amino-4-fluoro-1-(3-(5-fluoropyridin-3-yl)phenyl)-1H-isoindol-1-yl)-1-ethyl-3-methylpyridin-2(1H)-one] | 13 nM | 4 nM
4 | CC#Cc1cncc(-c2cc(C3(c4cc(C)c(=O)n(CC)c4)N=C(N)c4c(F)cccc43)ccn2)c1 (single isomer, unassigned) [Example 26, 5-(3-amino-4-fluoro-1-(5′-(prop-1-ynyl)-2,3′-bipyridin-4-yl)-1H-isoindol-1-yl)-1-ethyl-3-methylpyridin-2(1H)-one] | 4 nM | 0.7 nM

Reference: US20120165346A1, “Compounds and their use as BACE inhibitors” (ASTRAZENECA AB, priority 2010, published 2012)
